# In patent US7138361B2, “Herbicidal heterocycles” (E. I. du Pont de Nemours and Company, priority 2000, dated 2006):
# What was measured:
# Type in all cases: in vivo
# Sunflower [1] = assay: Test C preemergence; settings: Rate 500 g/ha, visual evaluation after 12 to 14 days
# [2] = tested on: velvetleaf (Abutilon theophrasti); assay: Test C preemergence
# Method in brief: (§1)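 Visual 0–100 rating vs controls (0 = no effect, 100 = complete control) at 12–14 d, greenhouse. Compounds in non-phytotoxic solvent + surfactant; pre: sprayed after seeding; post: 1–4-leaf plants, 2–18 cm.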
# kochia (Kochia scoparia) = assay: Test C preemergence
# Method in brief: as §1
# [3] = tested on: woolly cupgrass (Eriochloa villosa); assay: Test C preemergence
# Method in brief: as §1
# [4] = tested on: bermudagrass (Cynodon dactylon); assay: Test C preemergence
# Method in brief: as §1
# [5] = tested on: goosegrass (Eleusine indica); assay: Test C preemergence
# Method in brief: as §1
# [6] = tested on: pigweed (Amaranthus retroflexus); assay: Test C preemergence
# Method in brief: as §1
# corn (Zea mays) = assay: Test C preemergence
# Method in brief: as §1
# soybean (Glycine max) = assay: Test C preemergence
# Method in brief: as §1
# [7] = tested on: yellow nutsedge (Cyperus esculentus); assay: Test C preemergence
# Method in brief: as §1
# [8] = tested on: morningglory (Ipomoea hederacea); assay: Test C preemergence
# Method in brief: as §1
# [9] = tested on: crabgrass (Digitaria sanguinalis); assay: Test C preemergence
# Method in brief: as §1
# [10] = tested on: Surinam grass (Brachiaria decumbens); assay: Test C preemergence
# Method in brief: as §1
# [11] = tested on: cocklebur (Xanthium strumarium); assay: Test C preemergence
# Method in brief: as §1
# [12] = tested on: giant foxtail (Setaria faberii); assay: Test C preemergence
# Method in brief: as §1
# [13] = tested on: johnsongrass (Sorghum halepense); assay: Test C preemergence
# Method in brief: as §1
# Sunflower [14] = assay: Test C preemergence; settings: Rate 125 g/ha; scale 0 to 100, 0 no effect, 100 complete control
# Nightshade = assay: Test C preemergence
# [15] = tested on: lambsquarters (Chenopodium album); assay: Test C preemergence
# Method in brief: as §1
# [16] = tested on: barnyardgrass (Echinochloa crus-galli); assay: Test C flooded paddy test; settings: for Barnyardgrass plant response rating: Flooded Paddy, scale 0 to 100, 0 no effect, 100 complete control; for Plant response rating, Barnyardgrass: flooded paddy test, scale 0 to 100 (0 no effect, 100 complete control)
# Method in brief: (§2)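 Each species was cultivated to 2 leaves in flooded paddy pots, then treated. After a greenhouse period of 12–14 days, the plants were scored visually relative to controls from 0 (no effect) to 100 (complete control).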
# [17] = tested on: smallflower flatsedge (Cyperus difformis); assay: Test C flooded paddy test; settings: for Flatsedge plant response rating: Flooded Paddy, scale 0 to 100, 0 no effect, 100 complete control; for Plant response rating, Flatsedge: flooded paddy test, scale 0 to 100 (0 no effect, 100 complete control)
# Method in brief: as §2
# [18] = tested on: duck salad (Heteranthera limosa); assay: Test C flooded paddy test; settings: for Ducksalad plant response rating: Flooded Paddy, scale 0 to 100, 0 no effect, 100 complete control; for Plant response rating, Ducksalad: flooded paddy test, scale 0 to 100 (0 no effect, 100 complete control)
# Method in brief: as §2
# [19] = Rate 125 g/ha, scale 0 to 100, 0 no effect, 100 complete control
# [20] = preemergence, Rate 62 g/ha, scale 0 to 100
# [21] = preemergence, Rate 500 g/ha, visual evaluation after 12 to 14 days
# [22] = preemergence, Rate 250 g/ha, scale 0 to 100, 0 no effect, 100 complete control
smiles,measurement,setting,value
CCCC(C)c1ccn(C2SCN(c3cccc(C(F)(F)F)c3)C2=O)n1 (stereo not drawn) [Compound 92],"Plant response rating (0 to 100), Sunflower",Sunflower [1],55
same,"Plant response rating, Velvetleaf",[2]; [19],0
same,"Plant response rating, Velvetleaf",[2]; [20],0
same,"Plant response rating (0 to 100), Velvetleaf",[2]; [21],0
same,"Plant response rating, Velvetleaf",[2]; [22],0
same,"Plant response rating, Kochia",kochia (Kochia scoparia); [19],40
same,"Plant response rating, Kochia",kochia (Kochia scoparia); [20],0
same,"Plant response rating (0 to 100), Kochia",kochia (Kochia scoparia); [21],100
same,"Plant response rating, Kochia",kochia (Kochia scoparia); [22],70
same,"Plant response rating, Cupgrass, Woolly",[3]; [19],10
same,"Plant response rating, Cupgrass, Woolly",[3]; [20],0
same,"Plant response rating (0 to 100), Cupgrass, Woolly",[3]; [21],50
same,"Plant response rating, Cupgrass, Woolly",[3]; [22],50
same,"Plant response rating, Bermudagrass",[4]; [19],20
same,"Plant response rating, Bermudagrass",[4]; [20],20
same,"Plant response rating (0 to 100 where 0 is no effect and 100 is complete control), Bermudagrass",[4]; [21],90
same,"Plant response rating, Bermudagrass",[4]; [22],85
same,"Plant response rating, Goosegrass",[5]; [19],75
same,"Plant response rating, Goosegrass",[5]; [20],60
same,"Plant response rating (0 to 100), Goosegrass",[5]; [21],100
same,"Plant response rating, Goosegrass",[5]; [22],100
same,"Plant response rating, Pigweed",[6]; [19],0
same,"Plant response rating, Pigweed",[6]; [20],0
same,"Plant response rating (0 to 100), Pigweed",[6]; [21],50
same,"Plant response rating, Pigweed",[6]; [22],100
same,"Plant response rating, Corn",corn (Zea mays); [19],10
same,"Plant response rating, Corn",corn (Zea mays); [20],0
same,"Plant response rating (0 to 100), Corn",corn (Zea mays); [21],40
same,"Plant response rating, Corn",corn (Zea mays); [22],30
same,"Plant response rating, Soybean",soybean (Glycine max); [19],0
same,"Plant response rating, Soybean",soybean (Glycine max); [20],0
same,"Plant response rating (0 to 100), Soybean",soybean (Glycine max); [21],100
same,"Plant response rating, Soybean",soybean (Glycine max); [22],30
same,"Plant response rating, Nutsedge",[7]; [19],0
same,"Plant response rating, Nutsedge",[7]; [20],0
same,"Plant response rating (0 to 100), Nutsedge",[7]; [21],0
same,"Plant response rating, Nutsedge",[7]; [22],0
same,"Plant response rating, Morningglory",[8]; [19],0
same,"Plant response rating, Morningglory",[8]; [20],0
same,"Plant response rating (0 to 100), Morningglory",[8]; [21],0
same,"Plant response rating, Morningglory",[8]; [22],0
same,"Plant response rating, Crabgrass",[9]; [19],80
same,"Plant response rating, Crabgrass",[9]; [20],60
same,"Plant response rating (0 to 100), Crabgrass",[9]; [21],100
same,"Plant response rating, Crabgrass",[9]; [22],100
same,"Plant response rating, Surinam grass",[10]; [19],0
same,"Plant response rating, Surinam grass",[10]; [20],0
same,"Plant response rating (0 to 100), Surinam grass",[10]; [21],35
same,"Plant response rating, Surinam grass",[10]; [22],20
same,"Plant response rating, Cocklebur",[11]; [19],0
same,"Plant response rating, Cocklebur",[11]; [20],0
same,"Plant response rating (0 to 100), Cocklebur",[11]; [21],20
same,"Plant response rating, Cocklebur",[11]; [22],20
same,"Plant response rating, Foxtail, Giant",[12]; [19],0
same,"Plant response rating, Foxtail, Giant",[12]; [20],20
same,"Plant response rating (0 to 100), Foxtail, Giant",[12]; [21],100
same,"Plant response rating, Foxtail, Giant",[12]; [22],100
same,"Plant response rating, Johnsongrass",[13]; [19],65
same,"Plant response rating, Johnsongrass",[13]; [20],50
same,"Plant response rating (0 to 100), Johnsongrass",[13]; [21],100
same,"Plant response rating, Johnsongrass",[13]; [22],70
same,"Plant response rating, Sunflower",Sunflower [14],0
same,"Plant response rating, Nightshade","Nightshade; Rate 62 g/ha, scale 0 to 100",0
same,"Plant response rating, Nightshade",Nightshade; [19],0
same,"Plant response rating, Nightshade","Nightshade; Rate 250 g/ha, scale 0 to 100, 0 no effect, 100 complete control",20
same,"Plant response rating, Lambsquarters",[15]; [19],100
same,"Plant response rating, Lambsquarters",[15]; [20],80
same,"Plant response rating (0 to 100), Lambsquarters",[15]; [21],100
same,"Plant response rating, Lambsquarters",[15]; [22],100
same,Barnyardgrass plant response rating,[16]; Rate 250 g/ha,100
same,Barnyardgrass plant response rating,[16]; Rate 500 g/ha,100
same,"Plant response rating, Barnyardgrass",[16]; Rate 62 g/ha,50
same,"Plant response rating, Barnyardgrass",[16]; Rate 125 g/ha,100
same,Flatsedge plant response rating,[17]; Rate 250 g/ha,100
same,Flatsedge plant response rating,[17]; Rate 500 g/ha,100
same,"Plant response rating, Flatsedge",[17]; Rate 62 g/ha,90
same,"Plant response rating, Flatsedge",[17]; Rate 125 g/ha,100
same,Ducksalad plant response rating,[18]; Rate 250 g/ha,100
same,Ducksalad plant response rating,[18]; Rate 500 g/ha,100
same,"Plant response rating, Ducksalad",[18]; Rate 62 g/ha,80
same,"Plant response rating, Ducksalad",[18]; Rate 125 g/ha,100
